Assays:
[1] = target: T1, STAT6 (Homo sapiens, UniProt P42226); assay: STAT6 Reporter Luciferase Assay (IL-13 stimulated HaCaT keratinocyte NanoLuc reporter cells); type: cell-based; settings: IL-13 stimulated HaCaT STAT6 NanoLuc reporter cells; read-out: Reporter EC50
T1 construct: stably transfected HaCaT keratinocyte cell line, which expresses NanoLuc luciferase reporter gene under the transcriptional control of the STAT6 responsive promoter; endogenous in cells; host or cells: HaCaT keratinocyte reporter cell line (stably transfected with a NanoLuc reporter)
T1 sequence (P42226 1-847): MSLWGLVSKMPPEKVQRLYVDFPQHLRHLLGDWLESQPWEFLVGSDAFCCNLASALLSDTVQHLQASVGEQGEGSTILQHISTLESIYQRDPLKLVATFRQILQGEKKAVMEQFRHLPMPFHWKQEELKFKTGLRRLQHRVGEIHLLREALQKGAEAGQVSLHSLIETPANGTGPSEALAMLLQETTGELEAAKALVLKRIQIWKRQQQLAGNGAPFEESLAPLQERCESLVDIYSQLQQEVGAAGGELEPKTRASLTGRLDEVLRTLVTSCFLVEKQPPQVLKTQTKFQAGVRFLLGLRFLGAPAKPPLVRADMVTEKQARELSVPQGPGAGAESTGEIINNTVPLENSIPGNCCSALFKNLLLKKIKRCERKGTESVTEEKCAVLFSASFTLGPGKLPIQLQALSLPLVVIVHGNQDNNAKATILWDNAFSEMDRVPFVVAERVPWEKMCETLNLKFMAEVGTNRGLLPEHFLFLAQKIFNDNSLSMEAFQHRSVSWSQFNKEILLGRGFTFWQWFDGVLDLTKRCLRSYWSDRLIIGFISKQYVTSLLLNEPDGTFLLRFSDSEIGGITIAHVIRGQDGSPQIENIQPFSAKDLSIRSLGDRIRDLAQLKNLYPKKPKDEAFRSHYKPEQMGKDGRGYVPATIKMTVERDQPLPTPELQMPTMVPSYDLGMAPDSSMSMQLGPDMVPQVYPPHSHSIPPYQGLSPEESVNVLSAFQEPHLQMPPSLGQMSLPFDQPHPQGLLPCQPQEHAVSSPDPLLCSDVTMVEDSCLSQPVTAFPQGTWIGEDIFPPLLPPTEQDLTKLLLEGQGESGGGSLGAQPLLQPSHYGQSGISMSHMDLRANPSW
Summary of the method: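 Compounds were tested as 11-point, 4-fold series in duplicate, applied for 2 h at 37 °C in low-serum (2% FBS) DMEM. The cells were a stable HaCaT line with NanoLuc under a STAT6-responsive IL-13Ra2 promoter. After 4 h with 0.12 nM IL-13, Nano-Glo luminescence was measured.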

[2] = tested on: CCL17 secretion in peripheral human whole blood; assay: Human Whole Blood (HWB) CCL17 TR-FRET Assay (IL-13 stimulated CCL17 secretion); type: cell-based; settings: Homo sapiens, 48 h, human whole blood, IL-13 stimulated
Summary of the method: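 IC50 comes from serum CCL17 measured by a TR-FRET sandwich assay (16 h at room temperature, 665/615 nm ratio). Beforehand, blood in sodium heparin was exposed to an 11-point, 3-fold compound series for 2 h at 37°C and then to 10 ng/mL IL-13 for 48 h.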

EC50 [1]	IC50 [2]	Compound
2 nM	11 nM	CCn1nc(C(=O)NCc2ccc(-c3ncc[nH]3)cc2)c2c1[C@@H](C)CN(c1ccc(C(=O)N(C)C)cn1)C2 [Example 283, (S)-N-(4-(1H-imidazol-2-yl)benzyl)-5-(5-(dimethylcarbamoyl)pyridin-2-yl)-1-ethyl-7-methyl-4,5,6,7-tetrahydro-1H-pyrazolo[4,3-c]pyridine-3-carboxamide]
8 nM	40 nM	CCn1nc(C(=O)NCc2ccc(C(=O)NC)cc2)c2c1[C@@H](C)CN(c1ccc(C(=O)N(C)C)cn1)C2 [Example 284, (S)-5-(5-(dimethylcarbamoyl)pyridin-2-yl)-1-ethyl-7-methyl-N-(4-(methylcarbamoyl)benzyl)-4,5,6,7-tetrahydro-1H-pyrazolo[4,3-c]pyridine-3-carboxamide]
663 nM	> 3060 nM	CC(C)n1nc(C(=O)NCc2ccc(NC(=O)N(C)C)cc2)c2c1CCN(c1ccc(CC(=O)N(C)C)cn1)C2 [Example 286, 5-(5-(2-(Dimethylamino)-2-oxoethyl)pyridin-2-yl)-N-(4-(3,3-dimethylureido)benzyl)-1-isopropyl-4,5,6,7-tetrahydro-1H-pyrazolo[4,3-c]pyridine-3-carboxamide]
1 nM	8 nM	CCn1nc(C(=O)NCc2ccc(-c3ncc[nH]3)cc2)c2c1[C@@H](C)CN(c1ncc(C(=O)N(C)C)cn1)C2 [Example 301, (S)-N-(4-(1H-imidazol-2-yl)benzyl)-5-(5-(dimethylcarbamoyl)pyrimidin-2-yl)-1-ethyl-7-methyl-4,5,6,7-tetrahydro-1H-pyrazolo[4,3-c]pyridine-3-carboxamide]
6 nM	9 nM	CCn1nc(C(=O)NCc2ccc(NC(=O)N(C)C)cn2)c2c1[C@@H](C)CN(c1ccc(C(=O)N(C)C)cn1)C2 [Example 302, (S)-5-(5-(dimethylcarbamoyl)pyridin-2-yl)-N-((5-(3,3-dimethylureido)pyridin-2-yl)methyl)-1-ethyl-7-methyl-4,5,6,7-tetrahydro-1H-pyrazolo[4,3-c]pyridine-3-carboxamide]
5 nM	7 nM	CCn1nc(C(=O)NCc2ccc(NC(=O)N(C)C)cn2)c2c1[C@@H](C)CN(c1ncc(C(=O)N(C)C)cn1)C2 [Example 305, (S)-5-(5-(dimethylcarbamoyl)pyrimidin-2-yl)-N-((5-(3,3-dimethylureido)pyridin-2-yl)methyl)-1-ethyl-7-methyl-4,5,6,7-tetrahydro-1H-pyrazolo[4,3-c]pyridine-3-carboxamide]
7 nM	33 nM	CCn1nc(C(=O)NCc2ccc(C(=O)NC)cc2)c2c1[C@@H](C)CN(c1ncc(C(=O)N(C)C)cn1)C2 [Example 306, (S)-5-(5-(dimethylcarbamoyl)pyrimidin-2-yl)-1-ethyl-7-methyl-N-(4-(methylcarbamoyl)benzyl)-4,5,6,7-tetrahydro-1H-pyrazolo[4,3-c]pyridine-3-carboxamide]
287 nM	718 nM	CN(C)C(=O)Nc1ccc(CNC(=O)c2nn(CCC#N)c3c2CN(c2ccc(C(=O)N(C)C)cn2)CC3)cc1 [Example 308, 1-(2-cyanoethyl)-5-(5-(dimethylcarbamoyl)pyridin-2-yl)-N-(4-(3,3-dimethylureido)benzyl)-4,5,6,7-tetrahydro-1H-pyrazolo[4,3-c]pyridine-3-carboxamide]
1710 nM	4100 nM	CN(C)C(=O)Nc1ccc(CNC(=O)c2nn(CCC(N)=O)c3c2CN(c2ccc(C(=O)N(C)C)cn2)CC3)cc1 [Example 309, 1-(3-amino-3-oxopropyl)-5-(5-(dimethylcarbamoyl)pyridin-2-yl)-N-(4-(3,3-dimethylureido)benzyl)-4,5,6,7-tetrahydro-1H-pyrazolo[4,3-c]pyridine-3-carboxamide]
5 nM	135 nM	CN(C)C(=O)Nc1ccc(CNC(=O)c2nn(C3(C(F)(F)F)CC3)c3c2CN(c2ccc(C(=O)N(C)C)cn2)CC3)cc1 [Example 320, 5-(5-(dimethylcarbamoyl)pyridin-2-yl)-N-(4-(3,3-dimethylureido)benzyl)-1-(1-(trifluoromethyl)cyclopropyl)-4,5,6,7-tetrahydro-1H-pyrazolo[4,3-c]pyridine-3-carboxamide]
5 nM	26 nM	CCn1nc(C(=O)NCc2ccc(NC(=O)N(C)C)nc2)c2c1[C@@H](C)CN(c1ccc(C(=O)N(C)C)cn1)C2 [Example 323, (S)-5-(5-(dimethylcarbamoyl)pyridin-2-yl)-N-((6-(3,3-dimethylureido)pyridin-3-yl)methyl)-1-ethyl-7-methyl-4,5,6,7-tetrahydro-1H-pyrazolo[4,3-c]pyridine-3-carboxamide]
5 nM	18 nM	CCn1nc(C(=O)NCc2ccc(NC(=O)N(C)C)nc2)c2c1[C@@H](C)CN(c1ncc(C(=O)N(C)C)cn1)C2 [Example 324, (S)-5-(5-(dimethylcarbamoyl)pyrimidin-2-yl)-N-((6-(3,3-dimethylureido)pyridin-3-yl)methyl)-1-ethyl-7-methyl-4,5,6,7-tetrahydro-1H-pyrazolo[4,3-c]pyridine-3-carboxamide]
5370 nM	> 20500 nM	CNC(=O)Cc1ccc(N2CCc3c(c(C(=O)NCc4ccc(NC(=O)N(C)C)cc4)nn3C(C)C)C2)nc1 [Example 337, N-(4-(3,3-dimethylureido)benzyl)-1-isopropyl-5-(5-(2-(methylamino)-2-oxoethyl)pyridin-2-yl)-4,5,6,7-tetrahydro-1H-pyrazolo[4,3-c]pyridine-3-carboxamide]
3110 nM	> 30000 nM	CC(C)n1nc(C(=O)NCc2ccc(NC(=O)N(C)C)cc2)c2c1CCN(c1ccc(C3COC3)cn1)C2 [Example 338, N-(4-(3,3-Dimethylureido)benzyl)-1-isopropyl-5-(5-(oxetan-3-yl)pyridin-2-yl)-4,5,6,7-tetrahydro-1H-pyrazolo[4,3-c]pyridine-3-carboxamide]
276 nM	2340 nM	CC(C)n1nc(C(=O)NCc2ccc(NC(=O)N(C)C)cc2)c2c1[C@@H](C)CN(c1ncc(-c3nccn3C)cn1)C2 [Example 340, (S)-N-(4-(3,3-dimethylureido)benzyl)-1-isopropyl-7-methyl-5-(5-(1-methyl-1H-imidazol-2-yl)pyrimidin-2-yl)-4,5,6,7-tetrahydro-1H-pyrazolo[4,3-c]pyridine-3-carboxamide]
4 nM	28 nM	CNC(=O)c1ccc(CNC(=O)c2nn(C(C)C)c3c2CN(c2ccc(C(=O)N(C)C)cn2)C[C@@H]3C)cc1 [Example 341, (S)-5-(5-(dimethylcarbamoyl)pyridin-2-yl)-1-isopropyl-7-methyl-N-(4-(methylcarbamoyl)benzyl)-4,5,6,7-tetrahydro-1H-pyrazolo[4,3-c]pyridine-3-carboxamide]
3 nM	15 nM	CC(C)n1nc(C(=O)NCc2ccc(C(N)=O)cc2)c2c1[C@@H](C)CN(c1ccc(C(=O)N(C)C)cn1)C2 [Example 342, (S)-N-(4-carbamoylbenzyl)-5-(5-(dimethylcarbamoyl)pyridin-2-yl)-1-isopropyl-7-methyl-4,5,6,7-tetrahydro-1H-pyrazolo[4,3-c]pyridine-3-carboxamide]
1 nM	9 nM	CC(C)n1nc(C(=O)NCc2ccc(-c3ncc[nH]3)cc2)c2c1[C@@H](C)CN(c1ccc(C(=O)N(C)C)cn1)C2 [Example 343, (S)-N-(4-(1H-imidazol-2-yl)benzyl)-5-(5-(dimethylcarbamoyl)pyridin-2-yl)-1-isopropyl-7-methyl-4,5,6,7-tetrahydro-1H-pyrazolo[4,3-c]pyridine-3-carboxamide]
2 nM	13 nM	CC(C)n1nc(C(=O)NCc2ccc(NC(=O)N(C)C)cc2)c2c1[C@@H](C)CN(c1ncc(C(=O)N3Cc4cccnc4C3)cn1)C2 [Example 346, (S)-5-(5-(6,7-dihydro-5H-pyrrolo[3,4-b]pyridine-6-carbonyl)pyrimidin-2-yl)-N-(4-(3,3-dimethylureido)benzyl)-1-isopropyl-7-methyl-4,5,6,7-tetrahydro-1H-pyrazolo[4,3-c]pyridine-3-carboxamide]

Reference: US20250320213A1, “Nitrogen-Containing Heterocyclic Compounds” (Pfizer Inc., priority 2024, published 2025)
